We go through one molecule from ChEMBL document CHEMBL4028875, “Design of Leucine-Rich Repeat Kinase 2 (LRRK2) Inhibitors Using a Crystallographic Surrogate Derived from Checkpoint Kinase 1 (CHK1)” (J Med Chem, 2017).

Activity calls are given as the source filed them. The rule behind the calls is not given here. Where only a bound is given, the exact number is not on record here.

The target in assay [1] is 5-hydroxytryptamine receptor 2B (Homo sapiens) (UniProt P41595). Kind of assay: Agonist activity at recombinant human 5-HT2B receptor expressed in CHOK1 cells assessed as induction of IP1 accumulation up to 10 uM after 30 mins by HTRF assay. It counts as functional, cell-based. In general terms: Time-resolved FRET reads energy transfer from a long-lived donor to a nearby acceptor.

Assay [2] addresses T1, Adenosine receptor A3 (Homo sapiens) (UniProt P0DMS8).
T1 sequence (whole entry): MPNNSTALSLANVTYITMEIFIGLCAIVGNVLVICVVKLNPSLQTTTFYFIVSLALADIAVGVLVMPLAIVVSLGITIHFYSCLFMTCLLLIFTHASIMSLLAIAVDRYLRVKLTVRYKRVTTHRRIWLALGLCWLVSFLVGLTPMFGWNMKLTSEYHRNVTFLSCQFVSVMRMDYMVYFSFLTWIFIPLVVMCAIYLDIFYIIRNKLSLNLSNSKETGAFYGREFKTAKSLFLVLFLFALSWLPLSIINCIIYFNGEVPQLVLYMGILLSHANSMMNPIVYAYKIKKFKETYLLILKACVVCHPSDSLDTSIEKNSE
Kind of assay: Displacement of [125I] AB-MECA from recombinant human adenosine A3 receptor expressed in CHOK1 cell membranes up to 10 uM after 120 mins by scintillation counting method. A general note: Displacement assays read how much labelled ligand stays bound in the presence of the test substance.

Assay [3] addresses Leucine-rich repeat serine/threonine-protein kinase 2 (Homo sapiens, UniProt Q5S007). Particulars: 1 uM.
Description: Inhibition of LRRK2 in human PBMC at 1 uM
Assay [4] concerns the target T2, Serine/threonine-protein kinase D2 (Homo sapiens) (UniProt Q9BZL6).
T2 sequence (whole entry): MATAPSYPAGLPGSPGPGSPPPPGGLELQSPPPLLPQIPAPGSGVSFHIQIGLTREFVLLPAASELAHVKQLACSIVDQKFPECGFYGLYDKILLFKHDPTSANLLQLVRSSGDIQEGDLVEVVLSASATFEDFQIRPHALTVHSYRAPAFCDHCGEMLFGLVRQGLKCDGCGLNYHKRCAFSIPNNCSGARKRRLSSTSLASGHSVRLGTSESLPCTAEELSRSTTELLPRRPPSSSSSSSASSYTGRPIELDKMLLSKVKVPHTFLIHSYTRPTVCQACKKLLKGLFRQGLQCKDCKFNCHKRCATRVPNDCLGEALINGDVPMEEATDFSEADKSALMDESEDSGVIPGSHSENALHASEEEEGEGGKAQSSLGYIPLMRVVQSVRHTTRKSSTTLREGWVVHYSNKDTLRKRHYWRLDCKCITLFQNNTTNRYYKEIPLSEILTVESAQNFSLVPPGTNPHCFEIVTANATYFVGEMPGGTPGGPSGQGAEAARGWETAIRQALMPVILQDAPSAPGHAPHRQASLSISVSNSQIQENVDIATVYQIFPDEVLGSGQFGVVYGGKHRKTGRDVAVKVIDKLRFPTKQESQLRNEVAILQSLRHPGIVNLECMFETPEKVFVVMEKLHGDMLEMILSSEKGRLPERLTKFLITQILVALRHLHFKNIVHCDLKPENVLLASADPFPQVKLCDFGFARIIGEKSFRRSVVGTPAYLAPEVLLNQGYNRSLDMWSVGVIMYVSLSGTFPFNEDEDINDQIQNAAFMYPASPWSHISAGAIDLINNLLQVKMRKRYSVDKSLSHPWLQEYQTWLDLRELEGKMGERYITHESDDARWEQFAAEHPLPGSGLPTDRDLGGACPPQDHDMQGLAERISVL
The assay is described as follows: Inhibition of PKD2 in human PBMC at 1 uM.

The target of assay [5] is T3, Adenosine receptor A1 (Homo sapiens) (UniProt P30542).
T3 sequence (whole entry): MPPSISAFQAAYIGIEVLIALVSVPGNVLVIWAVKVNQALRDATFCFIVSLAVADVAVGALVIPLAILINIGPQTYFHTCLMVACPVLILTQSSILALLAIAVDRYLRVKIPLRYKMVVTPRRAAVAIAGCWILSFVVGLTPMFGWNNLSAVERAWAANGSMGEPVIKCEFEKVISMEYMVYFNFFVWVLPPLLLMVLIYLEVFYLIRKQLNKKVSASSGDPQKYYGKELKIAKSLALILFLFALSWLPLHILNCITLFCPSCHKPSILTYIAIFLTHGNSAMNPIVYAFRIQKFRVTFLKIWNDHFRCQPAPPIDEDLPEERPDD
The assay is described as follows: Agonist activity at recombinant human adenosine A1 receptor expressed in BA/F3 cells up to 10 uM by Ca2+ flux assay. It counts as functional, cell-based.

In assay [6] the target is T4, Tyrosine-protein kinase JAK3 (Homo sapiens) (UniProt P52333).
T4 sequence (whole entry): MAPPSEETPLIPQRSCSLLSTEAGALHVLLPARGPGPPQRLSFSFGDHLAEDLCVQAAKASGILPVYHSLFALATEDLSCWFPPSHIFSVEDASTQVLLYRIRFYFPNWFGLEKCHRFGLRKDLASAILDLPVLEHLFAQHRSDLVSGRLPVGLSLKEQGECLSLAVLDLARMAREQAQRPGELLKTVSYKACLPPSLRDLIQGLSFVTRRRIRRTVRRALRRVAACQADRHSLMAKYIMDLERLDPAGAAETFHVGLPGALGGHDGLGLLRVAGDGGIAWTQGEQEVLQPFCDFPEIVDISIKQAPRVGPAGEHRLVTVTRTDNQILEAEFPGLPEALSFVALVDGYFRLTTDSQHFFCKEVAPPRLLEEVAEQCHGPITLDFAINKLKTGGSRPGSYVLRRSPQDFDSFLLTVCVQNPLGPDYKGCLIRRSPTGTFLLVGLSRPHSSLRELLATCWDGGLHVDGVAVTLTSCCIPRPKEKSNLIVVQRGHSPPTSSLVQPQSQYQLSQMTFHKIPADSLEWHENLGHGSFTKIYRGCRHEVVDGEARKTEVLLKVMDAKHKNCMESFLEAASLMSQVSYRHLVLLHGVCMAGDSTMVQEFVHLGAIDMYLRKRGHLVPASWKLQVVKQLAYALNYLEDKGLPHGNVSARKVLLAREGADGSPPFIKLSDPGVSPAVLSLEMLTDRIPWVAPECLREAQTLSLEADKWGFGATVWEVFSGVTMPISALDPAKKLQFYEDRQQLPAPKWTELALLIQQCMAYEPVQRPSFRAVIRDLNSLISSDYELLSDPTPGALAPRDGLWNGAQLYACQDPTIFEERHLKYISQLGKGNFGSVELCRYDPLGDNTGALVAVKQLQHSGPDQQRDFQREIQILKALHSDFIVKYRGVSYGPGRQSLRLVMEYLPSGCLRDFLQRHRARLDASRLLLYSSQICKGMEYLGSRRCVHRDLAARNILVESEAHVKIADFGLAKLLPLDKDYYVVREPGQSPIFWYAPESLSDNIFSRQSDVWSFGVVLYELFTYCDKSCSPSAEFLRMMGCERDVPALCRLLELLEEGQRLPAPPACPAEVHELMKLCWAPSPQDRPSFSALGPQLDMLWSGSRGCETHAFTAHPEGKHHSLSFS
Kind of assay: Inhibition of JAK3 in human PBMC at 1 uM.

Assay [7] deals with T3, Adenosine receptor A1 (Homo sapiens). The assay is described as follows: Antagonist activity at recombinant human adenosine A1 receptor expressed in mouse BA/F3 cells assessed as inhibition of CPA-induced calcium flux up to 10 uM by spectrophotometric analysis. The assay is classed as functional, cell-based.

Sequence of Leucine-rich repeat serine/threonine-protein kinase 2 (Q5S007 whole entry): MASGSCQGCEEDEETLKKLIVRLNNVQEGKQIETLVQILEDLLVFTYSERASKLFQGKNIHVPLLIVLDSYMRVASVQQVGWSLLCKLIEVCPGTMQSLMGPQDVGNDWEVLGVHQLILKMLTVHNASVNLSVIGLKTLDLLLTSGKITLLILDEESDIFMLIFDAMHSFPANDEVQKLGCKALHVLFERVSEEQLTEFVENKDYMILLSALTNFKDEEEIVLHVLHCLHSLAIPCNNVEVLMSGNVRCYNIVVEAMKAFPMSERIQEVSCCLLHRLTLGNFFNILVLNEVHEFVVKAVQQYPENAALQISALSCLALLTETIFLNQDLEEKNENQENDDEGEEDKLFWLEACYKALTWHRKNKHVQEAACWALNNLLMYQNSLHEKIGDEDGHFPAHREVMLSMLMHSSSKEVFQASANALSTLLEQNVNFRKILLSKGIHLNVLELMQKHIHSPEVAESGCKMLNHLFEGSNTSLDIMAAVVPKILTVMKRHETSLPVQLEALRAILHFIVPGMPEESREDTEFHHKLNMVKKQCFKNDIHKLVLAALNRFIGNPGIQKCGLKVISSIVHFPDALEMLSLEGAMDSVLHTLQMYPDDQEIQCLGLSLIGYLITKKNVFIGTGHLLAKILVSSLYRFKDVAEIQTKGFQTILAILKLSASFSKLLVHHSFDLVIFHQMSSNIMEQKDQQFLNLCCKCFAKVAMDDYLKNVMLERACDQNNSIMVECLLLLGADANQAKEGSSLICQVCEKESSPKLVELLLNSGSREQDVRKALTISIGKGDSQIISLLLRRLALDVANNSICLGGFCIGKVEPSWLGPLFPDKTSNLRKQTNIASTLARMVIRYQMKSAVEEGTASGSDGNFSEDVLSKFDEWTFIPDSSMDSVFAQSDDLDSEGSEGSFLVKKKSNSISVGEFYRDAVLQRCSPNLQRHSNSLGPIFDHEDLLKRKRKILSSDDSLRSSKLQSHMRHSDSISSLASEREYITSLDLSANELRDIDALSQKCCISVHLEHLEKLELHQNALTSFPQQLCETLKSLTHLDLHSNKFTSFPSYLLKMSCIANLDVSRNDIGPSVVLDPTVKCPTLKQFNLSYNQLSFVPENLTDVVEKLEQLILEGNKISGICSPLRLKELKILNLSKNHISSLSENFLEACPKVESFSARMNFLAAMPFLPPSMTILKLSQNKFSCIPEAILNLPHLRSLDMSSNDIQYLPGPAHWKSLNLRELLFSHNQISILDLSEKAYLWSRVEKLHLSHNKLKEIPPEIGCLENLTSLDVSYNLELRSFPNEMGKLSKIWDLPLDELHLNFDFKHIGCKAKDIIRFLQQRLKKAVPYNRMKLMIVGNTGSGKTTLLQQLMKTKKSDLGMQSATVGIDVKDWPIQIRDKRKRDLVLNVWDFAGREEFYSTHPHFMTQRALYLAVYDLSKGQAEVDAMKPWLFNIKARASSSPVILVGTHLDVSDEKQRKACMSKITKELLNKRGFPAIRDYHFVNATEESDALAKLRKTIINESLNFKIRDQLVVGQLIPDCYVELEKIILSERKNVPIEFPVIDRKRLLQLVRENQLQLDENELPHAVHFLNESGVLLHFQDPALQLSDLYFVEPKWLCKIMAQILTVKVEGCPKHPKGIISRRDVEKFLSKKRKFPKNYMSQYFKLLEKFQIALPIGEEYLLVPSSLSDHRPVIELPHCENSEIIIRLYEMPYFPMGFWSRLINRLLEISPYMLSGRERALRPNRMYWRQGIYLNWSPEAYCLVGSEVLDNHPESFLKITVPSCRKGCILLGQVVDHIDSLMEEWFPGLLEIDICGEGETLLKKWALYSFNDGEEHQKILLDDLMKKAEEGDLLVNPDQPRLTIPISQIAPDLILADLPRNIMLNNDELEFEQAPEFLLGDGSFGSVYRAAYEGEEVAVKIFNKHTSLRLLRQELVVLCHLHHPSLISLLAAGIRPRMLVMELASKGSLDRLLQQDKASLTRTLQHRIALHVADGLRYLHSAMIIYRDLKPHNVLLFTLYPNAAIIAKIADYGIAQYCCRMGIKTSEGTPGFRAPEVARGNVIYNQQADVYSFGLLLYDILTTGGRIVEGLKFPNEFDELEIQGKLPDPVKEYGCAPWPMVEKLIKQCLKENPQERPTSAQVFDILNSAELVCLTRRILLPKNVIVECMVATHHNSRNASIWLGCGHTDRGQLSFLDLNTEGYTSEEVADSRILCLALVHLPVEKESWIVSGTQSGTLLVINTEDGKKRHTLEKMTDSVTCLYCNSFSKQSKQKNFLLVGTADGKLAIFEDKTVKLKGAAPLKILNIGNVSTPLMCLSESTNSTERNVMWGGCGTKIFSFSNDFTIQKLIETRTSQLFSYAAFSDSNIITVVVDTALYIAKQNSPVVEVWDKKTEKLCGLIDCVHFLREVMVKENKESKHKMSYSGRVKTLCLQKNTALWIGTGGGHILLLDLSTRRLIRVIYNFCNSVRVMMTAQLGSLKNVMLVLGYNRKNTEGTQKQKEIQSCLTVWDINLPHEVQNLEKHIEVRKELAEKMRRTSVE
Sequence of 5-hydroxytryptamine receptor 2B (Homo sapiens) (P41595 whole entry): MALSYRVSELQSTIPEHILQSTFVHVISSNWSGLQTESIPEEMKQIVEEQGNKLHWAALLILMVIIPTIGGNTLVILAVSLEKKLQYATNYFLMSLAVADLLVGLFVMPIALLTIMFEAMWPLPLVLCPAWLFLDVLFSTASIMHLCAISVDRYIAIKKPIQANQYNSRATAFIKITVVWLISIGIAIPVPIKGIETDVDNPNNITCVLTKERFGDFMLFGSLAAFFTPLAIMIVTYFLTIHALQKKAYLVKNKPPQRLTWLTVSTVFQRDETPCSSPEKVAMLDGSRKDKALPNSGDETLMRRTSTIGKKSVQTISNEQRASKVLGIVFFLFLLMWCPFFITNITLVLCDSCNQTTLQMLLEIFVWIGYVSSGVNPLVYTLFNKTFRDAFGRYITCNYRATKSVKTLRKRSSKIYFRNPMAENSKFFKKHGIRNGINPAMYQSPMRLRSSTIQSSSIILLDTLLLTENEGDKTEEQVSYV

For orientation: inhibition means the change of the read-out against control, counted positive when it falls. For `Cc1cccc(-c2cc(N)nc3[nH]cc(C#N)c23)c1`, the result in assay [1] and in assay [5] was inactive. Moreover, in assay [2], the inhibition entry was “Active”. In addition, the inhibition was 91% in assay [3], over 35% in assay [4] and over 60% in assay [6]. Moreover, the inhibition result in assay [7] was “inactive”.
